Test results taken from PubChem BioAssay AID298 (DTP/NCI, 2004).
“And” between values parts separate entries of the source, which are not always exact repeats. Equal entries are not always repeated. Results filed as inconclusive are left out.

System: MX-1 breast xenograft, intrarenal, nude mice, tumor weight
Experiment: NCI In Vivo Anticancer Drug Screen. Data for tumor model Human Mammary Carcinoma MX-1 Xenograft (intrarenal inoculation) in NU/NU BALB/C (nude) mice
Conditions: endpoint: mean tumor weight change, higher = larger tumour
Procedure, shortened: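 T/C readout: treated-group measurement over vehicle-control measurement, using tumor size or survival in tumor-bearing mice.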

[1] = dose: 100.0 mg/kg/injection, schedule: Q04DX003 (ip), vehicle: saline with Tween-80
[2] = dose: 200.0 mg/kg/injection, schedule: Q04DX003 (ip), vehicle: saline with Tween-80
[3] = dose: 150.0 mg/kg/injection, schedule: Q04DX003 (ip), vehicle: Klucel (hydroxypropylcellulose) (HPC)
[4] = dose: 12.5 mg/kg/injection, schedule: Q04DX003 (ip), vehicle: saline
[5] = dose: 25.0 mg/kg/injection, schedule: Q04DX003 (ip), vehicle: saline
[6] = dose: 12.5 mg/kg/injection, schedule: Q04DX003 (ip), vehicle: saline with Tween-80
[7] = dose: 300.0 mg/kg/injection, schedule: Q04DX003 (ip), vehicle: Klucel (hydroxypropylcellulose) (HPC)
[8] = dose: 50.0 mg/kg/injection, schedule: Q04DX003 (ip), vehicle: Klucel (hydroxypropylcellulose) (HPC)
[9] = dose: 100.0 mg/kg/injection, schedule: Q04DX003 (ip), vehicle: Klucel (hydroxypropylcellulose) (HPC)
[10] = dose: 0.5 mg/kg/injection, schedule: Q04DX003 (ip), vehicle: Klucel (hydroxypropylcellulose) (HPC)
[11] = dose: 1.0 mg/kg/injection, schedule: Q04DX003 (ip), vehicle: Klucel (hydroxypropylcellulose) (HPC)

For `CN(C)c1nc(N(C)C)[n+]([O-])c(N(C)C)n1`, the T/C (dose: 200.0 mg/kg/injection, schedule: Q01DX010 (ip), vehicle: water) was 83 % of control and the T/C (dose: 400.0 mg/kg/injection, schedule: Q01DX010 (ip), vehicle: water) was 107 % of control.

With `Cc1nc2c(N)cc(Cl)cc2[nH]1` the T/C [1] was 95 % of control and the T/C [2] was 45 % of control.

In the case of `Cc1ccc(C2NC(=O)c3ccccc3N2)s1` (stereo unspecified), the T/C (dose: 600.0 mg/kg/injection, schedule: Q04DX003 (sc), vehicle: Klucel (hydroxypropylcellulose) (HPC)) is reported as 105 % of control, the T/C (dose: 1200.0 mg/kg/injection, schedule: Q04DX003 (sc), vehicle: Klucel (hydroxypropylcellulose) (HPC)) is reported as 106 % of control and the T/C (dose: 2400.0 mg/kg/injection, schedule: Q04DX003 (sc), vehicle: Klucel (hydroxypropylcellulose) (HPC)) is reported as 118 % of control. For the same molecule, the T/C (dose: 4800.0 mg/kg/injection, schedule: Q04DX003 (sc), vehicle: Klucel (hydroxypropylcellulose) (HPC)) was 97 % of control.

`Cc1ccc2c(c1)C1(C)OC(C=CC1=O)O2` (stereo unspecified) was tested, and the T/C [3] was 94 % of control.

In the case of `NCCCNCCCCNC(=O)C(O)NC(=O)CC(O)CCCCN=C(N)N` (stereo unspecified), the T/C [4] is reported as 100 % of control, the T/C [5] is reported as 93 % of control and the T/C (dose: 50.0 mg/kg/injection, schedule: Q04DX003 (ip), vehicle: saline) is reported as 29 % of control and 44 % of control. For the same molecule, the T/C (dose: 100.0 mg/kg/injection, schedule: Q04DX003 (ip), vehicle: saline) was 53 % of control and 56 % of control.

`CC(C)c1cc(C(=O)O)c(O)c(C(C)C)c1.CC(C)c1cc(C(=O)O)c(O)c(C(C)C)c1.[Cu]` was tested, and the T/C [6] was 74 % of control, the T/C (dose: 50.0 mg/kg/injection, schedule: Q04DX003 (ip), vehicle: saline with Tween-80) was 116 % of control and the T/C [1] was 90 % of control.

In the case of `CCCC1(c2ccccc2)C(=O)NCNC1=O`, the T/C [3] is reported as 92 % of control, the T/C [7] is reported as 95 % of control and the T/C (dose: 600.0 mg/kg/injection, schedule: Q04DX003 (ip), vehicle: Klucel (hydroxypropylcellulose) (HPC)) is reported as 88 % of control. The T/C (dose: 1200.0 mg/kg/injection, schedule: Q04DX003 (ip), vehicle: Klucel (hydroxypropylcellulose) (HPC)) was 55 % of control.

With `CS(=O)(=O)CS(=O)(=O)OCCF` the T/C (dose: 6.25 mg/kg/injection, schedule: Q04DX003 (ip), vehicle: saline) was 104 % of control, the T/C [4] was 84 % of control and the T/C [5] was 69 % of control.

In the case of `OC(CBr)C(O)C(O)C(O)CBr` (stereo unspecified), the T/C (dose: 15.0 mg/kg/injection, schedule: Q01DX010 (ip), vehicle: Klucel (hydroxypropylcellulose) (HPC)) is reported as 29 % of control, the T/C (dose: 30.0 mg/kg/injection, schedule: Q01DX010 (ip), vehicle: Klucel (hydroxypropylcellulose) (HPC)) is reported as 13 % of control and the T/C [8] is reported as 93 % of control. For the same molecule, the T/C (dose: 50.0 mg/kg/injection, schedule: Q04DX003 (sc), vehicle: Klucel (hydroxypropylcellulose) (HPC)) was 35 % of control, the T/C (dose: 60.0 mg/kg/injection, schedule: Q01DX010 (ip), vehicle: Klucel (hydroxypropylcellulose) (HPC)) was -22 % of control and the T/C [9] was 61 % of control. The T/C (dose: 100.0 mg/kg/injection, schedule: Q04DX003 (sc), vehicle: Klucel (hydroxypropylcellulose) (HPC)) was 33 % of control and the T/C (dose: 200.0 mg/kg/injection, schedule: Q04DX003 (ip), vehicle: Klucel (hydroxypropylcellulose) (HPC)) was -44 % of control.

With `CO[C@@]12[C@@H]3N[C@@H]3CN1C1=C(C(=O)C(NCC3CCCO3)=C(C)C1=O)[C@@H]2COC(N)=O` (stereo partly specified) the T/C (dose: 6.25 mg/kg/injection, schedule: Q04DX003 (ip), vehicle: Klucel (hydroxypropylcellulose) (HPC)) was 43 % of control, the T/C (dose: 12.5 mg/kg/injection, schedule: Q04DX003 (ip), vehicle: Klucel (hydroxypropylcellulose) (HPC)) was 56 % of control and 57 % of control and the T/C (dose: 12.5 mg/kg/injection, schedule: Q04DX003 (ip), vehicle: distilled water + Tween-80) was 1 % of control and 3 % of control. The T/C (dose: 25.0 mg/kg/injection, schedule: Q04DX003 (ip), vehicle: Klucel (hydroxypropylcellulose) (HPC)) was 35 % of control and 59 % of control, the T/C [8] was 28 % of control and 32 % of control and the T/C (dose: 50.0 mg/kg/injection, schedule: Q04DX003 (ip), vehicle: distilled water + Tween-80) was -4 % of control. The T/C [9] was 14 % of control.

`Nc1cc2c(cc1Br)-c1c(C(=O)O)cccc1C2O` (stereo unspecified) was tested, and the T/C (dose: 150.0 mg/kg/injection, schedule: Q04DX003 (ip), vehicle: sodium bicarbonate) was 97 % of control, the T/C (dose: 300.0 mg/kg/injection, schedule: Q04DX003 (ip), vehicle: sodium bicarbonate) was 94 % of control and the T/C (dose: 600.0 mg/kg/injection, schedule: Q04DX003 (ip), vehicle: sodium bicarbonate) was 101 % of control. For the same molecule, the T/C (dose: 1200.0 mg/kg/injection, schedule: Q04DX003 (ip), vehicle: sodium bicarbonate) was 92 % of control.

`S=C(N/N=C1/CCCC/C1=N/NC(=S)N1CCOCC1)N1CCOCC1` was tested, and the T/C (dose: 6.25 mg/kg/injection, schedule: Q04DX003 (ip), vehicle: saline with Tween-80) was 81 % of control, the T/C [6] was 76 % of control and the T/C (dose: 25.0 mg/kg/injection, schedule: Q04DX003 (ip), vehicle: saline with Tween-80) was 48 % of control.

`Cc1cc(N(CCOS(C)(=O)=O)CCOS(C)(=O)=O)ccc1C=Nc1ccc(-c2nc(Cc3ccccc3)sc2C)cc1` was tested, and the T/C (dose: 50.0 mg/kg/injection, schedule: Q01DX010 (sc), vehicle: Klucel (hydroxypropylcellulose) (HPC)) was -72 % of control, the T/C (dose: 100.0 mg/kg/injection, schedule: Q01DX010 (sc), vehicle: Klucel (hydroxypropylcellulose) (HPC)) was -60 % of control and the T/C (dose: 200.0 mg/kg/injection, schedule: Q01DX010 (sc), vehicle: Klucel (hydroxypropylcellulose) (HPC)) was -90 % of control. For the same molecule, the T/C (dose: 400.0 mg/kg/injection, schedule: Q01DX010 (sc), vehicle: Klucel (hydroxypropylcellulose) (HPC)) was -86 % of control.

For `OC1(CSc2ccccc2)CCCCC1`, the T/C (dose: 300.0 mg/kg/injection, schedule: Q04DX003 (sc), vehicle: saline with Tween-80) was 98 % of control and the T/C (dose: 600.0 mg/kg/injection, schedule: Q04DX003 (sc), vehicle: saline with Tween-80) was 112 % of control.

In the case of `COC(=O)C12OCC34C(CC5C(C)C6=CC(=O)OC6=CC5(C)C3C(O)C1O)OC(=O)C(O)C24` (stereo unspecified), the T/C [10] is reported as 75 % of control, the T/C [11] is reported as 77 % of control and the T/C (dose: 2.0 mg/kg/injection, schedule: Q04DX003 (ip), vehicle: Klucel (hydroxypropylcellulose) (HPC)) is reported as 69 % of control. For the same molecule, the T/C (dose: 4.0 mg/kg/injection, schedule: Q04DX003 (ip), vehicle: Klucel (hydroxypropylcellulose) (HPC)) was 45 % of control.

In the case of `O=C1c2ccccc2C(Cl)(c2ccc(Cl)cc2)c2ccc(Cl)cc21` (stereo unspecified), the T/C (dose: 150.0 mg/kg/injection, schedule: Q04DX003 (ip), vehicle: saline with Tween-80) is reported as 53 % of control, the T/C (dose: 300.0 mg/kg/injection, schedule: Q04DX003 (ip), vehicle: saline with Tween-80) is reported as 60 % of control and the T/C (dose: 600.0 mg/kg/injection, schedule: Q04DX003 (ip), vehicle: saline with Tween-80) is reported as 48 % of control. The T/C (dose: 1200.0 mg/kg/injection, schedule: Q04DX003 (ip), vehicle: saline with Tween-80) was 30 % of control.

For `NC(Cc1ccc(N(CCCl)Cc2ccccc2)cc1)C(=O)O` (stereo unspecified), the T/C [1] was 6 % of control and 14 % of control, the T/C (dose: 120.0 mg/kg/injection, schedule: Q04DX003 (ip), vehicle: saline with Tween-80) was 3 % of control and the T/C [2] was 7 % of control and -15 % of control. The T/C (dose: 333.33 mg/kg/injection, schedule: Q04DX003 (ip), vehicle: saline with Tween-80) was -90 % of control.

In the case of `COc1c2c(c(O)c3c4c(c(C)cc13)C1OC3(C(OC)OC5CC(C)(O)C(OC6CC(C)(O)C(O)C(C)O6)C(C)O5)OC1C(OC)(O4)C31CO1)C(=O)C(O)CC2OC1CC(C)(O)C(OC(C)=O)C(C)O1` (stereo unspecified), the T/C (dose: 0.06 mg/kg/injection, schedule: Q04DX003 (ip), vehicle: saline) is reported as 61 % of control and the T/C (dose: 0.5 mg/kg/injection, schedule: Q04DX003 (ip), vehicle: saline) is reported as 45 % of control.

For `O=c1[nH]cnc2c1cnn2CN1CCOCC1`, the T/C [3] was 96 % of control and the T/C [7] was 65 % of control.

In the case of `COc1ccc2c(c1)-c1nn(CCCN(C)C)c3ccc([N+](=O)[O-])c(c13)N2`, the T/C (dose: 12.5 mg/kg/injection, schedule: Q04DX003 (ip), vehicle: water) is reported as 66 % of control and 79 % of control, the T/C (dose: 25.0 mg/kg/injection, schedule: Q04DX003 (ip), vehicle: water) is reported as 53 % of control and 56 % of control and the T/C (dose: 50.0 mg/kg/injection, schedule: Q04DX003 (ip), vehicle: water) is reported as 19 % of control and 38 % of control and 41 % of control. The T/C (dose: 100.0 mg/kg/injection, schedule: Q04DX003 (ip), vehicle: water) was 13 % of control.

With `COc1oc(C2C/C(=C/C(C)=C/C(C)=C/C(C)=C/c3ccc([N+](=O)[O-])cc3)CO2)c(C)c(=O)c1C` (stereo unspecified) the T/C (dose: 1.0 mg/kg/injection, schedule: Q04DX003 (ip), vehicle: saline) was 106 % of control and the T/C (dose: 2.0 mg/kg/injection, schedule: Q04DX003 (ip), vehicle: saline) was 48 % of control.

For `C[CH2][Sn]([Cl])([CH2]C)[c]1cc[c]([Sn]([Cl])([CH2]C)[CH2]C)cc1`, the T/C (dose: 0.25 mg/kg/injection, schedule: Q04DX003 (ip), vehicle: Klucel (hydroxypropylcellulose) (HPC)) was 103 % of control, the T/C [10] was 109 % of control and the T/C [11] was 95 % of control.
